Laboratory results taken from the supplement of paper PMC10307832.

Columns and labels:
Experiment in all cases: relative viability (nuclei count vs DMSO), 5 days (fraction); higher = more cells survive
[1] = compound: C=CCc1cccc(/C=N/NC(=O)CN2CCN(Cc3ccccc3)CC2)c1O [PAC-1] + COc1cccc2cc(-c3nc([C@H]4CC[C@H](C(=O)O)CC4)n4ncnc(N)c34)[nH]c12 [OSI-027] (partner 0.5 µM)
Method in brief: (§1)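 Lung cancer cell lines were seeded in 1536-well plates and dosed by pin tool the next day, with either a single drug or a fixed anchor-drug dose combined with five library-drug doses (not always all listed) spaced in √10 steps. Five days later, one step fixed the cells and stained their nuclei (final 0.05% Triton X-100, 1% formaldehyde, 1 ug/ml Hoechst), and nuclei were counted on 4× images. Relative viability is the nuclei count in treated wells divided by the count in vehicle wells, and each value is the median of duplicate plates.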

[2] = compound: C=CC(=O)Nc1cc(-n2c(=O)ccc3cnc4ccc(-c5ccc(NS(C)(=O)=O)cc5)cc4c32)ccc1C [BMX-IN-1] + CC1(C)CCC(c2ccc(Cl)cc2)=C(CN2CCN(c3ccc(C(=O)NS(=O)(=O)c4ccc(N[C@H](CCN5CCOCC5)CSc5ccccc5)c(S(=O)(=O)C(F)(F)F)c4)cc3)CC2)C1 [Navitoclax] (partner 0.5 µM)
Method in brief: as §1

[3] = compound: C=CC(=O)N1CCC[C@@H](n2nc(-c3ccc(Oc4ccccc4)cc3)c3c(N)ncnc32)C1 [Ibrutinib] + CCNC(=O)c1noc(-c2cc(C(C)C)c(O)cc2O)c1-c1ccc(CN2CCOCC2)cc1 [Luminespib] (partner 0.01 µM)
Method in brief: as §1

[4] = compound: C=CC(=O)N1CCC[C@@H](n2nc(-c3ccc(Oc4ccccc4)cc3)c3c(N)ncnc32)C1 [Ibrutinib] + CS(=O)(=O)CCNCc1ccc(-c2ccc3ncnc(Nc4ccc(OCc5cccc(F)c5)c(Cl)c4)c3c2)o1 [Lapatinib] (partner 2 µM)
Method in brief: as §1

Cell Line	relative viability ([1]; first compound 0.02 µM)	relative viability ([1]; first compound 0.06325 µM)	relative viability ([1]; first compound 0.2 µM)	relative viability ([1]; first compound 2 µM)	relative viability ([2]; first compound 0.02 µM)	relative viability ([2]; first compound 0.2 µM)	relative viability ([2]; first compound 0.6325 µM)	relative viability ([2]; first compound 2 µM)	relative viability ([3]; first compound 0.005 µM)	relative viability ([3]; first compound 0.01581 µM)	relative viability ([3]; first compound 0.05 µM)	relative viability ([3]; first compound 0.1581 µM)	relative viability ([3]; first compound 0.5 µM)	relative viability ([4]; first compound 0.005 µM)	relative viability ([4]; first compound 0.01581 µM)	relative viability ([4]; first compound 0.05 µM)	relative viability ([4]; first compound 0.1581 µM)	relative viability ([4]; first compound 0.5 µM)
NCI-H2085	0.755	0.713	0.66	0.754	1.23	1.31	1.2	1.07	0.349	0.465	0.504	0.489	0.447	0.651	0.727	0.75	0.752	0.631
HCC-78	0.336	0.335	0.376	0.396	0.859	0.851	1	0.863	–	–	–	–	–	1.27	0.812	0.57	0.398	0.399
NCI-H647	0.684	0.762	0.594	0.617	1.52	1.23	1.03	1.16	–	0.14	0.239	0.181	0.196	0.799	0.934	1.06	1.11	1.19
NCI-H1299	–	–	–	–	1.08	1.05	1.05	1.06	–	–	–	–	–	0.973	0.984	0.977	0.979	0.969
LU99A	0.303	0.314	0.257	0.3	0.897	0.885	0.857	0.833	0.191	0.24	0.285	0.249	0.248	0.936	1.08	1.1	1.04	0.995
A549	–	–	–	–	1.5	1.44	1.37	1.17	–	–	–	–	–	0.931	0.916	1.05	1.08	1.02
HARA	0.487	0.54	0.426	0.504	1.22	1.36	1.09	1.08	0.975	0.748	0.548	0.746	0.324	0.836	0.638	0.727	0.777	0.796
NCI-H1944	0.362	0.439	0.456	0.423	0.992	1.11	1.02	1.08	0.649	0.57	0.714	0.669	0.536	0.818	0.818	0.771	0.7	0.844
LCLC-103H	0.45	0.467	0.436	0.559	–	–	–	–	1	0.905	0.896	1.09	0.897	–	–	–	–	–
NCI-H1792	0.731	0.715	0.684	0.733	0.559	0.632	0.49	0.724	–	0.486	0.485	0.364	0.367	0.907	0.896	0.913	0.73	0.912
Calu-6	–	–	–	–	1.08	1.06	0.902	0.823	–	–	–	–	–	1.07	1.04	0.98	1.13	–
SW 900	0.69	0.828	0.572	0.496	–	–	–	–	–	–	0.159	0.175	0.19	–	–	–	–	–
LOU-NH91	0.643	0.68	0.727	0.715	–	0.695	0.773	0.683	0.333	0.346	0.267	0.294	0.309	0.638	0.786	0.774	0.737	0.694
HCC-366	0.946	0.863	0.894	1.26	1.54	1.29	1.15	1.05	–	–	–	–	–	1.07	0.978	1.02	0.959	1.19
CAL-12T	0.673	0.723	0.567	0.645	1.28	1.21	1.22	1.24	0.417	0.14	0.416	0.276	0.302	0.615	0.67	0.711	0.647	0.683
NCI-H1355	0.403	0.436	0.404	0.438	1	0.969	0.94	0.99	0.55	0.648	0.715	0.858	0.517	–	0.975	1.07	0.92	0.963
ABC-1	0.478	0.44	0.468	0.457	–	–	–	–	0.476	–	0.68	–	0.562	1.14	1.19	1.29	1.19	1.26
NCI-H2405	0.65	0.638	0.598	0.71	0.957	0.846	0.915	0.836	0.846	0.669	0.66	0.713	0.69	0.942	1.08	0.973	–	1.09
NCI-H1648	0.239	0.264	0.27	0.317	–	–	–	–	–	–	–	–	–	–	–	–	–	–
NCI-H650	0.47	0.515	0.468	0.535	–	–	–	–	0.775	0.757	0.737	0.885	0.949	–	0.867	–	1	0.883
NCI-H2228	0.543	0.513	0.512	0.564	0.954	0.853	1.44	0.969	0.121	–	0.116	0.131	0.144	0.746	0.974	0.833	0.884	1.1
EPLC-272H	0.312	0.27	0.22	0.262	1.25	1.22	1.08	1.18	0.485	0.433	0.211	0.313	0.211	–	1.05	0.877	0.68	0.704

Cell Line	relative viability ([1]; first compound 0.02 µM)	relative viability ([1]; first compound 0.06325 µM)	relative viability ([1]; first compound 0.2 µM)	relative viability ([1]; first compound 2 µM)	relative viability ([2]; first compound 0.02 µM)	relative viability ([2]; first compound 0.2 µM)	relative viability ([2]; first compound 0.6325 µM)	relative viability ([2]; first compound 2 µM)	relative viability ([3]; first compound 0.005 µM)	relative viability ([3]; first compound 0.01581 µM)	relative viability ([3]; first compound 0.05 µM)	relative viability ([3]; first compound 0.1581 µM)	relative viability ([3]; first compound 0.5 µM)	relative viability ([4]; first compound 0.005 µM)	relative viability ([4]; first compound 0.01581 µM)	relative viability ([4]; first compound 0.05 µM)	relative viability ([4]; first compound 0.1581 µM)	relative viability ([4]; first compound 0.5 µM)
SK-LU-1	0.338	0.363	0.287	0.326	1	0.69	0.789	1.02	0.205	0.184	0.24	0.199	0.194	0.88	0.76	0.838	0.937	0.905
PC-3 [JPC-3]	0.834	0.698	0.773	0.821	0.728	0.823	0.746	0.871	0.65	0.64	0.74	0.806	0.505	0.389	0.45	0.439	0.413	0.444
ChaGo-K-1	0.623	0.617	0.57	0.635	0.937	0.988	1.27	0.531	0.586	0.409	0.53	0.655	0.556	–	–	–	–	–
NCI-H3122	1.25	0.972	0.919	0.925	1.1	1.06	1.02	1.05	0.0621	0.0853	0.101	0.104	0.0947	0.953	1.03	1.04	0.948	0.99
NCI-H1703	–	–	–	–	1.25	1.3	1.29	0.942	–	–	–	–	–	–	–	1.06	1.16	0.684
NCI-H2126	0.725	0.717	0.712	0.687	0.836	0.945	0.876	0.907	0.651	0.756	0.855	0.962	0.75	–	0.726	0.756	0.741	0.706
NCI-H1993	0.485	0.576	0.634	0.545	1.07	0.875	–	0.958	0.607	0.78	0.824	0.689	0.605	0.766	0.576	0.856	–	0.764
NCI-H1793	0.249	0.277	0.311	0.247	0.454	0.363	0.483	0.38	–	0.155	0.196	0.177	0.151	–	0.796	0.819	0.58	0.577
NCI-H441	0.521	0.759	0.501	0.413	0.466	0.85	1.08	0.755	0.362	0.359	0.266	0.36	0.235	–	–	–	–	–
H3255	0.604	0.487	0.558	0.611	0.51	0.595	0.544	0.633	1.13	0.945	–	1.19	0.704	0.26	0.28	0.248	0.182	0.218
NCI-H2087	0.467	0.58	0.401	0.497	1.03	1.18	1.01	1.08	0.161	0.136	0.153	–	0.165	1.09	1.17	0.986	1.03	1.11
NCI-H661	0.631	0.747	0.785	0.577	–	–	–	–	1	0.835	0.772	0.934	0.653	0.414	0.504	0.489	0.571	0.426
COR-L 105	0.756	0.669	0.615	0.756	0.756	0.779	0.875	0.709	0.765	0.802	0.744	0.883	0.599	0.36	0.402	0.368	0.314	0.337
BEN	0.303	0.264	0.291	0.289	0.066	0.0691	0.224	0.0676	–	0.292	0.318	0.307	0.462	–	0.791	0.519	0.526	0.551
NCI-H2023	0.429	0.404	0.333	0.357	1.36	1.15	1.12	0.988	0.671	0.678	0.665	0.737	0.907	0.622	0.711	0.772	0.818	0.868
NCI-H2342	0.653	0.574	0.65	0.682	–	–	–	–	0.719	0.608	0.707	0.655	0.497	–	–	–	–	–
NCI-H522	0.673	0.695	0.737	0.691	–	–	–	–	1.11	1.05	1.17	1.07	0.922	–	–	–	–	–
NCI-H1563	0.757	0.814	0.742	0.753	–	–	–	–	0.538	0.524	0.519	0.519	0.53	0.867	0.866	0.959	0.945	1.02
NCI-H1623	0.455	0.446	0.442	0.448	–	–	–	–	0.382	0.505	0.486	0.414	0.304	–	–	–	–	–
IA-LM	–	–	–	–	0.937	0.796	0.807	0.722	–	–	–	–	–	0.792	0.827	0.592	1.1	0.814
EBC-1	–	–	–	–	0.425	0.341	0.434	0.329	–	–	–	–	–	0.199	0.197	0.219	0.186	0.238
NCI-H358	0.7	0.632	0.693	0.631	–	–	–	–	0.366	0.253	0.306	0.267	0.174	0.403	0.466	0.475	0.406	0.43
